Test results published in patent publication US20200385371A1 (Propellon Therapeutics Inc., priority 2017, published 2020).

Assays:
[1] = test system: MV4-11 cells; assay: Cell proliferation assay (ATPlite); type: cell-based; conditions: Homo sapiens, 120 h; MV4-11 cells, five days; read-out: GI MV411 EC50
Summary of the method: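 Cells seeded at 1,000/well in Alpha-MEM with 10% FBS, treated with compound over a 10-point range (top 10 μM) or DMSO. Grown five days at 37° C, 5% CO2; viability by ATPlite luminescence.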

[2] = target: T1, WDR5 (Homo sapiens, UniProt P61964); assay: Surface Plasmon Resonance (SPR) assay; type: binding; design: Full length WDR5 with an N-terminal His tag and C-terminal AviTag; His tag (N); made in house; host or cells: E. coli; conditions: read-out: SPR Kd
Summary of the method: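 Full-length biotinylated WDR5 (N-His, C-AviTag, E. coli) captured (~3000 RU) on streptavidin SA chip; Biacore T200. HBS-EP pH 7.4 plus 5% DMSO running buffer, 40 μl/min.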

[3] = target: T1, WDR5; assay: Fluorescence Polarization (FP) binding assay
Summary of the method: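 Displacement of fluorescein-labelled H3 (1-15) (30 nM, with 0.3 μM WDR5) or 9-Ala-FAM (20 nM, with 0.05 μM WDR5) in 80 mM sodium phosphate pH 6.5, 20 mM KCl, 0.008% Triton X-100. FP read at 485/528 nm (H3) or 480/540 nm (9-Ala-FAM); Kdisp from hyperbolic fit, mean of quadruplicates.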

Row | Structure (SMILES) | EC50 [1] [nM] | Kd [2] [nM] | IC50 [3] [nM]
1 | C[C@@H]1CN(c2cc(F)c(C3=CCN(c4ncc(C#N)s4)CC3)c(F)c2NC(=O)c2c[nH]c(=O)cc2C(F)(F)F)C[C@H](C)N1C [Example 148, N-(3-(1-(5-cyanothiazol-2-yl)-1,2,3,6-tetrahydropyridin-4-yl)-2,4-difluoro-6-((3S,5R)-3,4,5-trimethylpiperazin-1-yl)phenyl)-6-oxo-4-(trifluoromethyl)-1,6-dihydropyridine-3-carboxamide] | 74.9 | 2.09 | 12.9
2 | C[C@@H]1CN(c2ncc(-c3c(F)cc(N4CCN(C)[C@@H](C)C4)c(NC(=O)c4cn(C)c(=O)cc4C(F)(F)F)c3F)cn2)C[C@@H](C)O1 [Example 165, N-(3-(2-((2R,6R)-2,6-dimethylmorpholino)pyrimidin-5-yl)-6-((S)-3,4-dimethylpiperazin-1-yl)-2,4-difluorophenyl)-1-methyl-6-oxo-4-(trifluoromethyl)-1,6-dihydropyridine-3-carboxamide] | 169 | 0.82 | 13.6
3 | C[C@@H]1CN(c2ccc(-c3c(F)cc(N4C[C@@H](C)N(C)[C@@H](C)C4)c(NC(=O)c4c[nH]c(=O)cc4C(F)F)c3F)cn2)C[C@H](C)O1 [Example 191, 4-(Difluoromethyl)-N-(3-(6-((2S,6R)-2,6-dimethylmorpholino)pyridin-3-yl)-2,4-difluoro-6-((3S,5R)-3,4,5-trimethylpiperazin-1-yl)phenyl)-6-oxo-1,6-dihydropyridine-3-carboxamide] | 40.8 | 1.07 | 10.7
4 | C[C@@H]1CN(c2cc(F)c(-c3ccc(OC4CCOCC4)nc3)c(F)c2NC(=O)c2c[nH]c(=O)cc2C(F)(F)F)C[C@H](C)N1C [Example 65, N-(2,4-difluoro-3-(6-((tetrahydro-2H-pyran-4-yl)oxy)pyridin-3-yl)-6-((3S,5R)-3,4,5-trimethylpiperazin-1-yl)phenyl)-6-oxo-4-(trifluoromethyl)-1,6-dihydropyridine-3-carboxamide] | 33.8 | 1.51 | 10.2
5 | CC(C)OC(=O)N1CCC=C(c2c(F)cc(N3CCN(C)[C@@H](C)C3)c(NC(=O)c3c[nH]c(=O)cc3C(F)F)c2F)C1 [Example 35, Isopropyl (S)-5-(3-(4-(difluoromethyl)-6-oxo-1,6-dihydropyridine-3-carboxamido)-4-(3,4-dimethylpiperazin-1-yl)-2,6-difluorophenyl)-3,6-dihydropyridine-1(2H)-carboxylate] | 409 | 6.29 | 29.4
6 | C[C@H]1CN(c2cc(F)c(C3=CCN(c4ccnc(C#N)n4)CC3)c(F)c2NC(=O)c2c[nH]c(=O)cc2C(F)(F)F)CCN1C [Example 112, (S)—N-(3-(1-(2-cyanopyrimidin-4-yl)-1,2,3,6-tetrahydropyridin-4-yl)-6-(3,4-dimethylpiperazin-1-yl)-2,4-difluorophenyl)-6-oxo-4-(trifluoromethyl)-1,6-dihydropyridine-3-carboxamide] | 35 | 2.4 | 15
7 | C[C@@H]1CN(c2ncc(-c3c(F)cc(N4C[C@@H](C)N(C)[C@@H](C)C4)c(NC(=O)c4c[nH]c(=O)cc4C(F)F)c3F)cn2)C[C@@H](C)O1 [Example 116, 4-(Difluoromethyl)-N-(3-(2-((2R,6R)-2,6-dimethylmorpholino)pyrimidin-5-yl)-2,4-difluoro-6-((3S,5R)-3,4,5-trimethylpiperazin-1-yl)phenyl)-6-oxo-1,6-dihydropyridine-3-carboxamide] | 36.5 | 1.12 | 15.2
8 | C[C@H]1CN(c2ncc(-c3c(F)cc(N4CCN(C)[C@@H](C)C4)c(NC(=O)c4cn(C)c(=O)cc4C(F)(F)F)c3F)cn2)C[C@H](C)O1 [Example 163, N-(3-(2-((2S,6S)-2,6-dimethylmorpholino)pyrimidin-5-yl)-6-((S)-3,4-dimethylpiperazin-1-yl)-2,4-difluorophenyl)-1-methyl-6-oxo-4-(trifluoromethyl)-1,6-dihydropyridine-3-carboxamide] | 83.4 | 1.1 | 15.3
9 | C[C@@H]1CN(c2ncc(-c3c(F)cc(N4CCN(C)[C@@H](C)C4)c(NC(=O)c4cn(C)c(=O)cc4C(F)F)c3F)cn2)C[C@H](C)O1 [Example 161, 4-(Difluoromethyl)-N-(3-(2-((2S,6R)-2,6-dimethylmorpholino)pyrimidin-5-yl)-6-((S)-3,4-dimethylpiperazin-1-yl)-2,4-difluorophenyl)-1-methyl-6-oxo-1,6-dihydropyridine-3-carboxamide] | 79.3 | 1.1 | 11.9
10 | COc1cnc(N2CC=C(c3c(F)cc(N4C[C@@H](C)N(C)[C@@H](C)C4)c(NC(=O)c4c[nH]c(=O)cc4C(F)(F)F)c3F)C2)nc1 [Example 139, N-(2,4-difluoro-3-(1-(5-methoxypyrimidin-2-yl)-2,5-dihydro-1H-pyrrol-3-yl)-6-((3S,5R)-3,4,5-trimethylpiperazin-1-yl)phenyl)-6-oxo-4-(trifluoromethyl)-1,6-dihydropyridine-3-carboxamide] | 18.5 | 1.65 | 12
11 | C[C@H]1CN(c2cc(F)c(C3=CCN(c4ncc(F)cn4)C3)c(F)c2NC(=O)c2c[nH]c(=O)cc2C(F)(F)F)CCN1C [Example 80, (S)—N-(6-(3,4-dimethylpiperazin-1-yl)-2,4-difluoro-3-(1-(5-fluoropyrimidin-2-yl)-2,5-dihydro-1H-pyrrol-3-yl)phenyl)-6-oxo-4-(trifluoromethyl)-1,6-dihydropyridine-3-carboxamide] | 58.3 | 1.27 | 23
12 | CC(C)OC(=O)N1CC=C(c2c(F)cc(N3CCN(C)[C@@H](C)C3)c(NC(=O)c3c[nH]c(=O)cc3C(F)F)c2F)CC1 [Example 34, Isopropyl (S)-4-(3-(4-(difluoromethyl)-6-oxo-1,6-dihydropyridine-3-carboxamido)-4-(3,4-dimethylpiperazin-1-yl)-2,6-difluorophenyl)-3,6-dihydropyridine-1(2H)-carboxylate] | 44.4 | 2.02 | 22
13 | C[C@H]1CN(c2cc(F)c(C3=CCN(c4ncc(C#N)s4)C3)c(F)c2NC(=O)c2c[nH]c(=O)cc2C(F)(F)F)CCN1C [Example 96, (S)—N-(3-(1-(5-cyanothiazol-2-yl)-2,5-dihydro-1H-pyrrol-3-yl)-6-(3,4-dimethylpiperazin-1-yl)-2,4-difluorophenyl)-6-oxo-4-(trifluoromethyl)-1,6-dihydropyridine-3-carboxamide] | 70.1 | 0.51 | 11.9
14 | C[C@@H]1CN(c2cc(F)c(-c3ccc4c(c3)OCO4)c(F)c2NC(=O)c2c[nH]c(=O)cc2C(F)(F)F)C[C@H](C)N1C [Example 71, N-(3-(benzo[d][1,3]dioxol-5-yl)-2,4-difluoro-6-((3S,5R)-3,4,5-trimethylpiperazin-1-yl)phenyl)-6-oxo-4-(trifluoromethyl)-1,6-dihydropyridine-3-carboxamide] | 64.4 | 1.65 | 15.1
15 | C[C@@H]1CN(c2cc(F)c(-c3cc(C(N)=O)c(F)cc3F)c(F)c2NC(=O)c2c[nH]c(=O)cc2C(F)(F)F)C[C@H](C)N1C [Example 30, N-(5′-carbamoyl-2,2′,4′,6-tetrafluoro-4-((3S,5R)-3,4,5-trimethylpiperazin-1-yl)-[1,1′-biphenyl]-3-yl)-6-oxo-4-(trifluoromethyl)-1,6-dihydropyridine-3-carboxamide] | 18500 | 23.6 | 85.9
16 | COc1cc(N2CC=C(c3c(F)cc(N4C[C@@H](C)N(C)[C@@H](C)C4)c(NC(=O)c4c[nH]c(=O)cc4C(F)(F)F)c3F)CC2)ncn1 [Example 140, N-(2,4-difluoro-3-(1-(6-methoxypyrimidin-4-yl)-1,2,3,6-tetrahydropyridin-4-yl)-6-((3S,5R)-3,4,5-trimethylpiperazin-1-yl)phenyl)-6-oxo-4-(trifluoromethyl)-1,6-dihydropyridine-3-carboxamide] | 30.9 | 1.4 | 14.5
17 | C[C@H]1CN(c2cc(F)c(C3=CCN(c4ccnc(C#N)n4)CC3)c(F)c2NC(=O)c2c[nH]c(=O)cc2C(F)F)CCN1C [Example 108, (S)—N-(3-(1-(2-cyanopyrimidin-4-yl)-1,2,3,6-tetrahydropyridin-4-yl)-6-(3,4-dimethylpiperazin-1-yl)-2,4-difluorophenyl)-4-(difluoromethyl)-6-oxo-1,6-dihydropyridine-3-carboxamide] | 29.9 | 1.65 | 14.2
18 | C[C@H]1CN(c2cc(F)c(C3=CCCN(C(=O)OC4CC(F)(F)C4)C3)c(F)c2NC(=O)c2c[nH]c(=O)cc2C(F)(F)F)CCN1C [Example 46, 3,3-Difluorocyclobutyl (S)-5-(4-(3,4-dimethylpiperazin-1-yl)-2,6-difluoro-3-(6-oxo-4-(trifluoromethyl)-1,6-dihydropyridine-3-carboxamido)phenyl)-3,6-dihydropyridine-1(2H)-carboxylate] | 607 | 2.97 | 14.9
